# According to the supplement of paper PMC8882468:
# Test system: HCI-001 (organoid from a triple-negative breast cancer xenograft)
# Experiment: CTG-3D luminescence at 96 h relative to day-0 seeding control (ratio to day 0); higher = more growth / less cytotoxicity
# Protocol: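 PDX-derived breast cancer organoids (PDxO) in 384-well Matrigel plates, 8-point dose (0.000000625-100 uM), 96 h at 37 C; CellTiter-Glo 3D luminescence normalised to the day-0 seeding control (mean of 4 technical replicates over mean of 4 day-0 wells).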
smiles,measurement,setting,value
O=c1[nH]cc(F)c(=O)[nH]1 [5-fluorouracil],CTG-3D luminescence at 96 h,"12.5 pM, days in culture: 240",1.75
same,CTG-3D luminescence at 96 h,"12.5 pM, days in culture: 260",2.43
same,CTG-3D luminescence at 96 h,"12.5 pM, days in culture: 269",1.52
same,CTG-3D luminescence at 96 h,"12.5 pM, days in culture: 327",1.6
same,CTG-3D luminescence at 96 h,"12.5 pM, days in culture: 346",1.42
same,CTG-3D luminescence at 96 h,"12.5 pM, days in culture: 364",1.68
same,CTG-3D luminescence at 96 h,"0.00025 µM, days in culture: 240",1.08
same,CTG-3D luminescence at 96 h,"0.00025 µM, days in culture: 260",1.07
same,CTG-3D luminescence at 96 h,"0.00025 µM, days in culture: 269",1.48
same,CTG-3D luminescence at 96 h,"0.00025 µM, days in culture: 327",1.41
same,CTG-3D luminescence at 96 h,"0.00025 µM, days in culture: 346",1.55
same,CTG-3D luminescence at 96 h,"0.00025 µM, days in culture: 364",1.19
same,CTG-3D luminescence at 96 h,"0.005 µM, days in culture: 240",1.16
same,CTG-3D luminescence at 96 h,"0.005 µM, days in culture: 260",2.1
same,CTG-3D luminescence at 96 h,"0.005 µM, days in culture: 269",1.32
same,CTG-3D luminescence at 96 h,"0.005 µM, days in culture: 327",2.11
same,CTG-3D luminescence at 96 h,"0.005 µM, days in culture: 346",1.28
same,CTG-3D luminescence at 96 h,"0.005 µM, days in culture: 364",1.35
same,CTG-3D luminescence at 96 h,"0.1 µM, days in culture: 240",0.972
same,CTG-3D luminescence at 96 h,"0.1 µM, days in culture: 260",1.43
same,CTG-3D luminescence at 96 h,"0.1 µM, days in culture: 269",1.97
same,CTG-3D luminescence at 96 h,"0.1 µM, days in culture: 327",1.91
same,CTG-3D luminescence at 96 h,"0.1 µM, days in culture: 346",1.28
same,CTG-3D luminescence at 96 h,"0.1 µM, days in culture: 364",1.35
same,CTG-3D luminescence at 96 h,"1 µM, days in culture: 240",1.31
same,CTG-3D luminescence at 96 h,"1 µM, days in culture: 260",1.62
same,CTG-3D luminescence at 96 h,"1 µM, days in culture: 269",1.62
same,CTG-3D luminescence at 96 h,"1 µM, days in culture: 327",1.54
same,CTG-3D luminescence at 96 h,"1 µM, days in culture: 346",1.41
same,CTG-3D luminescence at 96 h,"1 µM, days in culture: 364",1.13
same,CTG-3D luminescence at 96 h,"10 µM, days in culture: 240",0.84
same,CTG-3D luminescence at 96 h,"10 µM, days in culture: 260",1.42
same,CTG-3D luminescence at 96 h,"10 µM, days in culture: 269",2.03
same,CTG-3D luminescence at 96 h,"10 µM, days in culture: 327",1.38
same,CTG-3D luminescence at 96 h,"10 µM, days in culture: 346",1.26
same,CTG-3D luminescence at 96 h,"10 µM, days in culture: 364",1.21
same,CTG-3D luminescence at 96 h,"100 µM, days in culture: 240",0.903
same,CTG-3D luminescence at 96 h,"100 µM, days in culture: 260",1.14
same,CTG-3D luminescence at 96 h,"100 µM, days in culture: 269",1.46
same,CTG-3D luminescence at 96 h,"100 µM, days in culture: 327",1.51
same,CTG-3D luminescence at 96 h,"100 µM, days in culture: 346",1.3
same,CTG-3D luminescence at 96 h,"100 µM, days in culture: 364",0.902
same,CTG-3D luminescence at 96 h,"625 fM, days in culture: 240",1.74
same,CTG-3D luminescence at 96 h,"625 fM, days in culture: 260",1.09
same,CTG-3D luminescence at 96 h,"625 fM, days in culture: 269",1.77
same,CTG-3D luminescence at 96 h,"625 fM, days in culture: 327",1.69
same,CTG-3D luminescence at 96 h,"625 fM, days in culture: 346",1.12
same,CTG-3D luminescence at 96 h,"625 fM, days in culture: 364",1.55
